From US11390621B2, “Chiral indole compounds and their use” (ARIAGEN, INC., priority 2019, dated 2022)
“And” between values parts separate entries of the source, which are not always exact repeats. Identical values can stand only once. Like-named read-outs stand apart in the source and are kept apart here.

How the values were obtained:
EMT-6 cancer cells = assay: EMT-6 subcutaneous syngeneic mouse tumor model (Example 48); assay type: in vivo, BALB/C mice; details: 40 mg/kg, IP
Protocol: This example describes in vivo studies that evaluated the anti-cancer efficacy of ARI-143, ARI-164, ARI-165, and ARI-186 in syngeneic mouse tumor models. Mice implanted subcutaneously with EMT-6 or Pan02 cancer cells were treated with ARI-143, ARI-164, ARI-165, ARI-186, or vehicle controls, as described below.
A monolayer culture of tumor cells was maintained in vitro in DMEM or RPMI1640 medium supplemented with 10% fetal bovine serum at 37° C. in an atmosphere of 5% CO2. Cells in exponential growth phase were harvested and quantitated by cell counter before tumor inoculation. The cell lines used are described in the table below.
Two subcutaneous syngeneic mouse tumor models were generated by innoculating female BALB/C or C57BL/6 mice with cancer cells at their right lower or front flank as detailed in the table below:
Each mouse was inoculated subcutaneously with tumor cells in 0.1 mL of PBS. Treatments were started when the mean tumor size reached approximately 80-120 mm^3 (around 100 mm^3). The administration of the test compounds and the animal number in each study group are shown in the study design. The date of tumor cell inoculation was denoted as day 0.
ARI-143, ARI-164, and ARI-165 were dissolved in DMSO at the final concentration of 26.7 mg/ml and stored at room temperature. In Pan02 studies of ARI-164 and ARI-186, both compounds were dissolved in 100% PEG400.
Randomization of animals was started when the mean tumor size reached approximately 90 mm^3 to form the mouse study groups. The randomization was-performed based on “Matched distribution” method using the multi-task method (StudyDirector™ software, version 3.1.399.19)/randomized block design. The mouse groups (ten in each group) were treated with vehicle (DMSO or PEG400) or the test compounds at a dose of 26-80 mg/kg by intraperitoneal (i.p.). injection, QD for 28 days or longer.
After tumor cell inoculation, the mice were checked daily for morbidity and mortality. During routine monitoring, the mice were checked for tumor growth and any effects of the treatment on behavior such as mobility, food and water consumption, body weight gain/loss (body weights were measured twice per week after randomization), eye/hair matting, and any other abnormalities. Mortality and observed clinical signs were recorded for individual mice in detail.
Tumor volumes were measured twice per week in two dimensions using a caliper, and the volume was expressed in mm^3 using the formula: V=(L×W×W)/2, where V is tumor volume, L is tumor length (the longest tumor dimension) and W is tumor width (the longest tumor dimension perpendicular to L). Dosing as well as tumor and body weight measurements was conducted in a Laminar Flow Cabinet. The body weights and tumor volumes were measured by using StudyDirector™ software (version 3.1.399.19). Dosing Holiday
Tumor growth inhibition percentage (TGI %) is an indicator for antitumor activity of a drug compound, and expressed as: TGI(%)=100×(1−T/C), where T and C are the mean tumor volume (or weight) of the treated and control groups, respectively, on a given day. Statistical analysis of the difference in mean tumor volume (MTV) among the groups was conducted using the data collected on the day when the MTV of the vehicle group reached the humane endpoints, so that TGI could be derived for all or most mice enrolled in the study.

[1] = In vivo pharmacokinetic studies in rats; set-up: species or system SD rats; details: rats; for AUC(0-t): read-out: AUClast; for Tmax: read-out: Tmax
Protocol: This example describes pharmacokinetic (PK) studies of ARI-164, ARI-165, ARI-186, ARI-224, and ARI-226 in mice and rats. In the present studies, the test compounds were given to groups of mice and/or rats (N=3 in each group), intravenously (IV) at 2 mg/kg or orally (PO) at 10, 30, or 40 mg/kg. ARI-186, ARI-224 and ARI-226 were given orally to rats QD for 5 days at 10 mg/kg to assess whether decreased susceptibility to CYP1A1/1A2 metabolism would lead to increased accumulation. IV doses were formulated in DMSO, while PO doses were formulated in a 50/50 mixture of PEG400 and Tween 80 (single dose mouse and rat studies for ARI-164, ARI-165, ARI-186, ARI-224, ARI-226) or PEG400/Kolliphor HS15/Oleic Acid 45/45/10 (ARI-164 repeat dose rat study). Blood samples were collected at pre-dose and over a period of 24 hours post-dose. Plasma concentrations of the test compounds were determined by HPLC.

[2] = SD, rat, plasma, iv, 2 mg/kg, single 2 mg/kg IV dose, Mean of 3 animals
[3] = SD, rat, plasma, iv, 2 mg/kg, single 2 mg/kg IV dose, individual animal
[4] = Sprague-Dawley (SD), rat, plasma, iv, 2 mg/kg, single 2 mg/kg IV dose, Mean of 3 animals
[5] = Sprague-Dawley (SD), rat, plasma, po, 10 mg/kg, single 10 mg/kg PO dose, Mean of 3 animals
[6] = Sprague-Dawley (SD), rat, plasma, po, 10 mg/kg, single 10 mg/kg PO dose, individual animal
[7] = single 2 mg/kg IV dose, individual animal, 2 mg/kg
[8] = single 10 mg/kg PO dose, individual animal, 10 mg/kg

AUC(0-inf) [1, 2]: 12800 ng·h/mL
clearance [1, 2]: 5.38 mL/min/kg
AUC(0-t) [1, 2]: 12600 ng·h/mL
MRT inf [1, 3]: 0.81 h
MRT last [1, 3]: 0.79 h
Tmax [1, 3]: 0.083 h
MRT inf [1, 4]: 1.11 h
MRT last [1, 4]: 0.959 h
half-life [1, 4]: 1.33 h
Cmax ([1]; Sprague-Dawley (SD), rat, plasma, iv, 2 mg/kg, single 2 mg/kg IV dose, Mean of 3 animals, read-out: Cmax): 19200 ng/mL
Tmax [1, 4]: 0.083 h
Vd ([1]; Sprague-Dawley (SD), rat, plasma, iv, 2 mg/kg, single 2 mg/kg IV dose, Mean of 3 animals, read-out: Vss): 0.32 L/kg
AUC(0-inf) [1, 5]: 4310 ng·h/mL
MRT inf [1, 5]: 3.08 h
MRT last [1, 5]: 2.82 h
half-life [1, 5]: 1.09 h
AUC(0-t) [1, 5]: 4160 ng·h/mL
Cmax ([1]; Sprague-Dawley (SD), rat, plasma, po, 10 mg/kg, single 10 mg/kg PO dose, Mean of 3 animals, read-out: Cmax): 1120 ng/mL
Tmax [1, 5]: 2 h
AUC(0-inf) [1, 6]: 4680 ng·h/mL
MRT inf [1, 6]: 3.41 h
MRT last [1, 6]: 2.71 h
AUC(0-t) [1, 6]: 4260 ng·h/mL
Cmax ([1]; Sprague-Dawley (SD), rat, plasma, po, 10 mg/kg, single 10 mg/kg PO dose, individual animal, read-out: Cmax): 1250 ng/mL
Tmax [1, 6]: 2 h
bioavailability ([1]; Sprague-Dawley (SD), rat, plasma, 10 mg/kg PO vs 2 mg/kg IV, read-out: F (Bioavailability)): 6.73%
MRTinf [1, 7]: 1.61 h and 0.91 h
MRTlast [1, 7]: 1.28 h and 0.8 h
T1/2 [1, 7]: 1.07 h and 2.11 h and 0.83 h
Vss [1, 7]: 0.0832 L/kg and 0.198 L/kg and 0.677 L/kg
AUCinf [1, 8]: 4650 ng·h/mL and 3620 ng·h/mL
AUClast [1, 8]: 4640 ng·h/mL and 3560 ng·h/mL
Cmax [1, 8]: 1070 ng/mL and 1040 ng/mL
MRTinf [1, 8]: 3.12 h and 2.71 h
MRTlast [1, 8]: 3.12 h and 2.64 h
T1/2 [1, 8]: 1.87 h and 0.541 h and 0.87 h
SMILES: CC[C@@H](O)c1csc(C(=O)c2c[nH]c3cc(F)ccc23)n1 [ARI-165, (R)-(6-Fluoro-1H-indol-3-yl)(4-(1-hydroxypropyl)thiazol-2-yl)methanone]
TGI (EMT-6 cancer cells; study day 6): 0.0%
TGI (EMT-6 cancer cells; study day 10): −7.9%
TGI (EMT-6 cancer cells; study day 13): −8.6%
TGI (EMT-6 cancer cells; study day 17): 14.5%
TGI (EMT-6 cancer cells; study day 20): 23.1%
TGI (EMT-6 cancer cells; study day 24): 25.8%
TGI (EMT-6 cancer cells; study day 27): 12.5%
TGI (EMT-6 cancer cells; study day 31): 9.1%
AUCinf [1, 7]: 19500 ng·h/mL and 16300 ng·h/mL and 2690 ng·h/mL
AUClast [1, 7]: 19500 ng·h/mL and 15700 ng·h/mL and 2620 ng·h/mL
Cl [1, 7]: 1.72 mL/min/kg and 2.05 mL/min/kg and 12.4 mL/min/kg
Cmax [1, 7]: 36500 ng/mL and 17100 ng/mL and 3880 ng/mL
